PubChem BioAssay (NCI)
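A five-concentration, 48-hour dose response in 96-well plates underlies each endpoint, interpolated linearly between surrounding concentrations. At the GI50, growth is halved. TGI denotes the concentration required for complete inhibition of growth.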

How the values were obtained:
Assay in all cases: NCI-60 cell line screen, 48 h
COLO 205 colon = tested on: COLO 205 colon
SW-620 colon = tested on: SW-620 colon
BT-549 breast = tested on: BT-549 breast
OVCAR-3 ovarian = tested on: OVCAR-3 ovarian
HCT-116 colon = tested on: HCT-116 colon
MDA-MB-231 breast = tested on: MDA-MB-231 breast
OVCAR-8 ovarian = tested on: OVCAR-8 ovarian
HOP-62 NSCLC = tested on: HOP-62 NSCLC
CAKI-1 renal = tested on: CAKI-1 renal
M14 melanoma = tested on: M14 melanoma

Structure (SMILES) | GI50 (COLO 205 colon) | TGI (COLO 205 colon) | GI50 (SW-620 colon) | TGI (SW-620 colon) | GI50 (BT-549 breast) | TGI (BT-549 breast) | GI50 (OVCAR-3 ovarian) | TGI (OVCAR-3 ovarian) | GI50 (HCT-116 colon) | TGI (HCT-116 colon) | GI50 (MDA-MB-231 breast) | TGI (MDA-MB-231 breast) | GI50 (OVCAR-8 ovarian) | GI50 (HOP-62 NSCLC) | TGI (HOP-62 NSCLC) | GI50 (CAKI-1 renal) | TGI (CAKI-1 renal) | GI50 (M14 melanoma) | TGI (M14 melanoma) | TGI (OVCAR-8 ovarian)
O=C1/C=C/[C@@H](O)[C@@H]2C[C@@H](O)C[C@H]2/C=C/CCC[C@H](CCO)O1 | 0.104 µM | 0.241 µM | 0.216 µM | 0.646 µM | 0.33 µM | > 31.5 µM | 0.193 µM | 0.5 µM | 0.215 µM | 0.454 µM | 0.182 µM | 0.391 µM | 0.153 µM | 0.237 µM | > 31.6 µM | 0.324 µM | 3.43 µM | 0.155 µM | > 100 µM | 
COc1cc2c(cc1OC)C(Cl)C(c1ccc(Br)cc1)=C2Cl (stereo not given) |  | 29.1 µM |  | 23.4 µM |  | 5.44 µM |  | 24.1 µM |  | 22.7 µM |  | 21.6 µM |  |  | 35.4 µM |  | 32 µM |  | 23.3 µM | 26.1 µM
C[C@]12CC[C@H]3[C@@H](CC[C@]4(O)C[C@@H](O)CC[C@]34C=O)[C@@]1(O)CC[C@@H]2C1=CC(=O)OC1 |  | 6.7 µM |  | 2.79 µM |  | 1.08 µM |  | 1.55 µM |  | 0.595 µM |  | > 29.6 µM |  |  | 0.533 µM |  | 0.61 µM |  | 3.51 µM | 1.69 µM
Nc1ccc(C#Cc2ccccc2C#CCCCCO)cc1 | 16.1 µM | 30.1 µM | 17.6 µM | 33.1 µM | 16.3 µM | 34.8 µM | 23 µM | 47.2 µM | 14.3 µM | 28.2 µM | 14 µM | 27.5 µM | 17 µM | 15.2 µM | 28.7 µM | 20.9 µM | 40.4 µM | 14.1 µM | 28.1 µM | 33.5 µM
Cc1cc(I)cc(CN(C)CCCN2CCC(C)CC2)c1O | 13.4 µM | 28 µM | 13.6 µM | 26.6 µM | 11.2 µM | 23.8 µM | 13.7 µM | 28.1 µM | 10.4 µM | 22.1 µM | 15.1 µM | 32 µM | 16.7 µM | 14.1 µM | 27.2 µM | 13.5 µM | 28.7 µM | 13.7 µM | 26.8 µM | 33.5 µM
CC(C)[C@@H](C(=O)O[C@@H]1/C=C/C(=O)O[C@@H](C)CCC/C=C/[C@@H]2C[C@H](O)C[C@H]21)N(C)C | 8.95 µM | 25.5 µM | 7.03 µM | 20.7 µM | 9.41 µM | 32 µM | 6.34 µM | 26.7 µM | 22.3 µM | 64.4 µM | 20.2 µM | 63.2 µM | 18.1 µM | 22.3 µM | > 100 µM | 11.9 µM | 42.8 µM | 15.2 µM | 63.2 µM | > 83.2 µM
COC(=O)C1=C(C)NC(=S)NC1c1ccc(N(CCCl)CCCl)cc1Cl (stereo not given) |  | 59.7 µM |  | > 100 µM | 73.5 µM | > 100 µM |  | > 94 µM |  | > 100 µM |  | > 100 µM |  |  | > 100 µM |  | 14.6 µM |  | > 87.9 µM | > 100 µM
CCC(=O)NC1=C(Cl)C(=O)C(NC(=O)CC)=C(Cl)C1=O | 5.97 µM | 10.8 µM | 5.77 µM | 11 µM | 16 µM | 29.7 µM | 5.14 µM | 9.56 µM | 6.89 µM | 17.3 µM | 16.9 µM | 31.2 µM | 37.4 µM | > 47.7 µM | > 65.1 µM | 5.98 µM | 10.8 µM | 15.2 µM | 29.9 µM | > 60.6 µM
CN1C(=O)N(C)C2C1NC(=S)N2/N=C/C=C/c1ccccc1[N+](=O)[O-] (stereo not given) | 1.23 µM | 6.77 µM | 0.596 µM | > 100 µM | 3.34 µM | > 100 µM | 0.344 µM | > 100 µM | 0.634 µM | > 100 µM | 5.02 µM | > 100 µM | 3.11 µM | 1.01 µM | > 100 µM | 1.46 µM | > 100 µM | 0.92 µM | > 100 µM | > 100 µM
O=C(Nc1ccc(Br)c2ccccc12)c1ccc2ccccc2c1O |  | 5.49 µM |  | 14.8 µM |  | 11.3 µM |  | 35.7 µM |  | 11.2 µM |  | 16.8 µM |  |  | 14.8 µM |  | 25.2 µM |  | 18.3 µM | 19.2 µM
CC1Cc2c(Cl)ncnc2N(C)c2ccccc21 (stereo not given) | 1.77 µM | 3.41 µM | 3.08 µM | 11.2 µM | 5 µM | 33.9 µM | 3.4 µM | 20.1 µM | 3.96 µM | 80.3 µM | 2.39 µM | 5.05 µM | 3.42 µM | 3.08 µM | 14.7 µM | 3.39 µM | > 100 µM | 2.77 µM | 17.3 µM | 27.3 µM
CC1=CC2(C)/C=C(C)/C=C\CC(O)/C=C3/C=CC(=C4C(=O)OC2(CC1C)C4=O)OC3 (stereo not given) | 1.47 µM | 3.65 µM | 0.512 µM | 2.72 µM | 2.11 µM | 4.79 µM | 1.18 µM | 2.5 µM | 0.541 µM | 5.02 µM | 1.99 µM | 4.25 µM | 2.12 µM | 8.63 µM | 26.2 µM | 1.65 µM | 3.63 µM | 2.8 µM | 9.21 µM | 9.01 µM
O=C(Nc1cccc([N+](=O)[O-])c1)c1cccc(C(=O)Nc2cccc([N+](=O)[O-])c2)c1 | > 100 µM | > 100 µM | > 100 µM | > 100 µM | 9.05 µM | > 100 µM | > 100 µM | > 100 µM | 41.9 µM | > 100 µM | 12.1 µM | > 100 µM | 14 µM | 21.9 µM | > 70.5 µM | > 100 µM | > 100 µM | > 100 µM | > 100 µM | > 100 µM
C=CCc1c(O)c(C(=O)/C=C/c2ccc(Cl)cc2)c(OC)c2ccoc12 | 4.44 µM | 15.5 µM | 2.56 µM | 6.86 µM | 3 µM | 11 µM | 1.97 µM | 4.41 µM | 2.74 µM | 9 µM | 4.3 µM | 16.8 µM | 3.04 µM | 2.31 µM | 5.76 µM | 2.61 µM | 11.6 µM | 5.08 µM | 29.2 µM | 12 µM
